According to ChEMBL document CHEMBL1201862, “PubChem BioAssay data set” (2004):
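Grown in 96-well plates, cells were treated for 48 hours with each compound at five concentrations. Insufficient inhibition: endpoint recorded as highest concentration tested. Abbreviation: GI50, concentration required for 50% inhibition of growth.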 Calls of active or inactive are those of the source. Rule as the data show it: active = GI50 up to about 1.1 µM and inactive = higher.

Key:
Test in all cases: NCI-60 cell line screen, 48 h
[1] = tested on: A498
[2] = tested on: CAKI-1
[3] = tested on: EKVX
[4] = tested on: HOP-92
[5] = tested on: IGROV-1
[6] = tested on: KM-20L2
[7] = tested on: LOX IMVI
[8] = tested on: MOLT-4
[9] = tested on: Malme-3M
[10] = tested on: NCI-H460
[11] = tested on: SF-295
[12] = tested on: SF-539
[13] = tested on: SK-MEL-2
[14] = tested on: SK-OV-3
[15] = tested on: SN12C
[16] = tested on: SR
[17] = tested on: UACC-62
[18] = tested on: HL-60
[19] = tested on: HT-29

Measured: GI50

O=C(c1ccccc1)c1ccc(OCCOc2ccc(Nc3ccccc3)cc2)cc1
inactive: [1] 27.4 µM | [2] 47.3 µM | [3] 74.8 µM | [4] 27.3 µM | [5] 52.2 µM | [6] > 100 µM | [7] > 100 µM | [8] > 100 µM | [9] 19.2 µM | [10] 65.5 µM | [11] 27.2 µM | [12] 24.5 µM | [13] 38.3 µM | [14] 22.9 µM | [15] 42.3 µM | [16] > 100 µM | [17] 63.4 µM

CC1=C(NC(=O)/C(=N/NC(=S)NN)C2C(=O)CC(C)(C)CC2=O)C(=O)c2ccccc2C1=O
inactive: [1] 20.9 µM | [2] 20.7 µM | [3] 15.7 µM | [18] 3.41 µM | [19] 11.1 µM | [5] 5.21 µM | [6] 11.4 µM | [7] 3.34 µM | [8] 4.07 µM | [9] 16 µM | [10] 17.7 µM | [11] 13.7 µM | [12] 3.6 µM | [13] 6.14 µM | [14] 19.8 µM | [15] 7.4 µM | [16] 3.61 µM | [17] 2.49 µM

CN(CCO)c1nc(N)cc(=O)[nH]1
inactive: [2] > 100 µM | [3] > 100 µM | [18] > 100 µM | [4] > 100 µM | [19] > 100 µM | [5] > 100 µM | [6] > 100 µM | [7] > 100 µM | [8] > 100 µM | [9] > 100 µM | [10] > 100 µM | [11] > 100 µM | [12] > 100 µM | [13] > 100 µM | [14] > 100 µM | [15] > 100 µM | [16] > 100 µM | [17] > 100 µM

O=C1C(c2ccc(Cl)cc2)=[N+]([O-])c2ccccc21
inactive: [1] 24.7 µM | [3] 15.3 µM | [18] 3.3 µM | [19] 19.8 µM | [5] 18.1 µM | [6] 25.4 µM | [7] 14 µM | [8] 12.4 µM | [9] 17.8 µM | [10] 18.8 µM | [11] 12.1 µM | [12] 21 µM | [13] 23.1 µM | [14] > 100 µM | [15] 18.1 µM | [16] 20.2 µM | [17] 18.3 µM
